From patent EP4635500A1, “THERAPEUTIC AGENT FOR BACTERIAL INFECTION” (Sumitomo Pharma Co., Ltd., priority 2022, dated 2024)
≈ marks a conversion by molar mass, not a printed value. Read-outs that look alike come from different tables or passages of the source. Marks after values point to notes of the source that are not given here.

Assays:
OXA-65 = OXA-65 (Acinetobacter baumannii, UniProt Q58XD3); experiment: Ki,app against β-lactamase (Example 1, Table 1); format: biochemical; settings: OXA-65, class D; 30 min preincubation; n.d.: too low inhibitor activity at 100 µmol/L
Protocol: (§1) After stirring, the resultants were preincubated for 30 minutes at 37°C. The reporter substrate solution was incubated at 37°C for 15 minutes or more, dispensed at 100 µL/well, and measured for a change in absorbance by a microplate reader at 37°C. For each measured concentration of the positive control and the inhibitor, an initial rate (µmol/L/sec) was determined from a time to be analyzed and a change in product amount. […] Ki,app for each inhibitor concentration was calculated from the slope, the inhibitor concentration, an enzyme concentration, Km, and kcat using Expression 2. If the initial rate was determined at two or more concentrations for each inhibitor and a plurality of Ki,app could be obtained, an average value was used as the Ki,app for the inhibitor. t−tc = Km /Vmax x ([Inhibitor]/Ki,app)x Ln[S]0 /[S] [formula] Ki,app = [Inhibitor]x Km /(kcatx[Enzyme])x 1/slope [formula]
(§2) The experiment was performed in duplicate.

OXA-66 = OXA-66 (Acinetobacter baumannii, UniProt Q58XD2); experiment: Ki,app against β-lactamase (Example 1, Table 1); format: biochemical; settings: OXA-66, class D; 30 min preincubation; n.d.: too low inhibitor activity at 100 µmol/L
Protocol: as §1, §2

OXA-72 = OXA-72 (Acinetobacter baumannii, UniProt Q5XQU0); experiment: Ki,app against β-lactamase (Example 1, Table 1); format: biochemical; settings: OXA-72, class D; 30 min preincubation; n.d.: too low inhibitor activity at 100 µmol/L; *: value from one of three experiments
Protocol: as §1, §2

KPC-2 = KPC-2 (Klebsiella pneumoniae, UniProt Q9F663); experiment: Ki,app against β-lactamase (Example 1, Table 1); format: biochemical
Protocol: as §1, §2

OXA-23 = OXA-23 (Acinetobacter baumannii, UniProt Q9L4P2); experiment: Ki,app against β-lactamase (Example 1, Table 1); format: biochemical
Protocol: as §1, §2

OXA-48 = OXA-48 (Klebsiella pneumoniae, UniProt Q6XEC0); experiment: Ki,app against β-lactamase (Example 1, Table 1); format: biochemical
Protocol: as §1, §2

KPC-38 = KPC-38 (Klebsiella pneumoniae, UniProt Q9F663); format: biochemical; settings: read-out: Ki app; KPC-38, class A; 30 min preincubation; n.d.: too low inhibitor activity at 100 µmol/L
Protocol: as §1, §2

KPC-3 = KPC-3 (Klebsiella pneumoniae, UniProt Q9F663, H272Y); experiment: biochemical; format: biochemical
Protocol: as §1, §2

anaerobic bacteria [1] = experiment: microbe, parasite or virus in culture; format: cell-based
anaerobic bacteria [2] = settings: cited from earlier work
OXA-24 = OXA-24 (Acinetobacter baumannii, UniProt Q8RLA6); experiment: Ki,app against β-lactamase (Example 1, Table 1); format: biochemical; settings: OXA-24, class D; 30 min preincubation; n.d.: too low inhibitor activity at 100 µmol/L
Protocol: as §1, §2

KPC-6 = KPC-6 (Klebsiella pneumoniae, UniProt Q9F663, V239G); experiment: biochemical
Protocol: as §1, §2

KPC-8 = KPC-8 (Klebsiella pneumoniae, UniProt Q9F663, H272Y/V239G); experiment: biochemical
Protocol: as §1, §2

CTX-M-14 = CTX-M-14 (Escherichia coli, UniProt Q9L5C7); experiment: Ki,app against β-lactamase (Example 1, Table 1); format: biochemical; settings: CTX-M-14, class A; 30 min preincubation; n.d.: too low inhibitor activity at 100 µmol/L
Protocol: as §1, §2

CTX-M-27 = CTX-M-27 (Escherichia coli, UniProt Q840M4); experiment: Ki,app against β-lactamase (Example 1, Table 1); format: biochemical; settings: CTX-M-27, class A; 30 min preincubation; n.d.: too low inhibitor activity at 100 µmol/L
Protocol: as §1, §2

SHV-12 = SHV-12 (Klebsiella pneumoniae, UniProt P0A3M1, L31Q); experiment: Ki,app against β-lactamase (Example 1, Table 1); format: biochemical; settings: SHV-12, class A; 30 min preincubation; n.d.: too low inhibitor activity at 100 µmol/L
Protocol: as §1, §2

PDC-11 = PDC-11 (Pseudomonas aeruginosa, UniProt P24735, form not given, species not given); format: biochemical; settings: PDC-11, class C; 30 min preincubation; n.d.: too low inhibitor activity at 100 µmol/L; read-out: Ki app
Protocol: as §1, §2

KPC-31 = KPC-31 (Klebsiella pneumoniae, UniProt Q9F663, D178Y/H272Y); experiment: biochemical
Protocol: as §1, §2

KPC-33 = KPC-33 (Klebsiella pneumoniae, UniProt Q9F663, D178Y); experiment: biochemical
Protocol: as §1, §2

[3] = KPC-2, class A, 30 min preincubation, n.d.: too low inhibitor activity at 100 µmol/L, read-out: Ki app
[4] = KPC-3, class A, 30 min preincubation, n.d.: too low inhibitor activity at 100 µmol/L, read-out: Ki app

## NC(=O)[C@@H]1CC[C@@H]2CN1C(=O)N2OS(=O)(=O)O [Avibactam, avibactam]
OXA-65
  Ki: 5900 ± 1050 nM
OXA-66
  Ki: 7350 ± 963 nM
OXA-72
  Ki: 691 ± 63.8 nM

## O=C(O)[C@H]1/C(=C/CO)O[C@@H]2CC(=O)N21 [Clavulanate, clavulanate]
KPC-2
  Ki: 76.7 ± 38.3 nM
OXA-23
  Ki: 394 ± 169 nM
OXA-48; OXA-48, class D, 30 min preincubation, n.d.: too low inhibitor activity at 100 µmol/L, read-out: Ki app
  Ki: 103 ± 36.5 nM
KPC-38
  Ki: 78.2 ± 20.5 nM
KPC-3
  Ki: 128 ± 53.2 nM

## Cc1ncc([N+](=O)[O-])n1CCO [MNZ]
Anaerobic bacteria [1]; ATCC29328, Finegoldia magna ATCC 29328, read-out: MIC
  MIC: 2 µg/mL (≈ 11.7 µM)
Anaerobic bacteria [1]; ATCC43055, Eggerthella lenta ATCC 43055, read-out: MIC
  MIC: 1 µg/mL (≈ 5.84 µM)
Anaerobic bacteria [1]; ATCC43255, Clostridioides difficile ATCC 43255, read-out: MIC
  MIC: 1 µg/mL (≈ 5.84 µM)
Anaerobic bacteria [1]; ATCCBAA1803, Clostridioides difficile ATCC BAA-1803, read-out: MIC
  MIC: 2 µg/mL (≈ 11.7 µM)
Anaerobic bacteria [1]; ATCCBAA1870, Clostridioides difficile ATCC BAA-1870, read-out: MIC
  MIC: 1 µg/mL (≈ 5.84 µM)
Anaerobic bacteria [1]; Bacteroides fragilis, ATCC25285
  MIC: 1 µg/mL (≈ 5.84 µM)
Anaerobic bacteria [1]; Bacteroides ovatus
  MIC: 1 µg/mL (≈ 5.84 µM)
Anaerobic bacteria [1]; Bacteroides thetaiotaomicron KUB2984, read-out: MIC
  MIC: 1 µg/mL (≈ 5.84 µM)
Anaerobic bacteria [1]; Bacteroides thetaiotaomicron, ATCC29741
  MIC: 2 µg/mL (≈ 11.7 µM)
Anaerobic bacteria [1]; Clostridium perfringens, ATCC13124
  MIC: 2 µg/mL (≈ 11.7 µM)
Anaerobic bacteria [1]; Cutibacterium acnes, ATCC11827
  MIC: > 64 µg/mL
Anaerobic bacteria [1]; Fusobacterium nucleatum, ATCC25586
  MIC: ≤ 0.125 µg/mL
Anaerobic bacteria [1]; Fusobacterium varium, ATCC27725
  MIC: 0.5 µg/mL (≈ 2.92 µM)
Anaerobic bacteria [1]; Lancefieldella rimae
  MIC: 1 µg/mL (≈ 5.84 µM)
Anaerobic bacteria [1]; Olsenella uli
  MIC: 4 µg/mL (≈ 23.4 µM)
Anaerobic bacteria [1]; Parvimonas micra KUB3000, read-out: MIC
  MIC: 0.5 µg/mL (≈ 2.92 µM)
Anaerobic bacteria [1]; Peptoniphilus asaccharolyticus, ATCC14963
  MIC: 1 µg/mL (≈ 5.84 µM)
Anaerobic bacteria [1]; Peptostreptococcus anaerobius, ATCC27337
  MIC: 0.5 µg/mL (≈ 2.92 µM)
Anaerobic bacteria [1]; Prevotella histicola
  MIC: 2 µg/mL (≈ 11.7 µM)
Anaerobic bacteria [1]; Prevotella intermedia
  MIC: 1 µg/mL (≈ 5.84 µM)
Anaerobic bacteria [1]; Prevotella melaninogenica
  MIC: 1 µg/mL (≈ 5.84 µM)
Anaerobic bacteria [1]; Schaalia odontolytica, ATCC17929
  MIC: > 64 µg/mL
Anaerobic bacteria [1]; Segatella buccae
  MIC: 2 µg/mL (≈ 11.7 µM)
Anaerobic bacteria [2]; Bacteroides fragilis ATCC 25285 (QC strain)
  Acceptable MIC range of quality control (QC) strain: 1 (0.25 to 1)* µg/mL
Anaerobic bacteria [2]; Bacteroides thetaiotaomicron ATCC 29741 (QC strain)
  Acceptable MIC range of quality control (QC) strain: 2 (0.5 to 2)* µg/mL

## CC1(C)[C@H](C(=O)O)N2C(=O)C[C@H]2S1(=O)=O [Sulbactam, sulbactam]
KPC-2
  Ki: 420 ± 99.2 nM
OXA-23
  Ki: 681 ± 74.3 nM
OXA-48
  Ki: 264 ± 116 nM
KPC-38
  Ki: 405 ± 99.6 nM
KPC-3
  Ki: 674 ± 239 nM

## C[C@]1(Cn2ccnn2)[C@H](C(=O)O)N2C(=O)C[C@H]2S1(=O)=O [Tazobactam, tazobactam]
KPC-2; [3]
  Ki: 159 nM
OXA-24
  Ki: 100 ± 45.6 nM
KPC-38
  Ki: 112 ± 14.5 nM
KPC-3; [4]
  Ki: 270 ± 80.8 nM
KPC-6
  Ki: 79.9 ± 16.5 nM
KPC-8
  Ki: 52 ± 11.8 nM

## O=C(O)C[C@@H]1CC[C@H](NC(=O)Cc2cccs2)B(O)O1 [Vaborbactam, vaborbactam]
CTX-M-14
  Ki: 392 ± 20.3 nM
CTX-M-27
  Ki: 351 ± 28.7 nM
KPC-2; [3]
  Ki: 63.7 nM
SHV-12
  Ki: 755 ± 103 nM
KPC-38
  Ki: 48.3 nM
PDC-11
  Ki: 3860 ± 163 nM
KPC-3; [4]
  Ki: 88.3 ± 30.3 nM
KPC-31
  Ki: 13300 ± 8590 nM
KPC-33
  Ki: 4600 ± 437 nM
KPC-6
  Ki: 109 ± 21.7 nM
KPC-8
  Ki: 114 ± 22.1 nM
